According to PMC3890692 (ACS medicinal chemistry letters, 2013):

Key:
[1] = Mouse pharmacokinetic study, intraperitoneal
[2] = tested on: B. anthracis (Sterne); settings: mice infected with a lethal dose of B. anthracis (Sterne); cited from earlier work
[3] = following a single dose, i.p., mice

Work on `O=C([O-])[C@H](Cc1ccccc1)N1C(=O)/C(=C\c2ccc(-c3ccc(Cl)c(Cl)c3)o2)NC1=S.[Na+]` [Compound 12-ES-Na] yielded a Cl ([1]; Group 1, 25 mg/kg i.p., CD-1 female mice) of 2.33 mL/min/kg, a Cl ([1]; Group 2, 50 mg/kg i.p., CD-1 female mice) of 1.67 mL/min/kg and a Cl ([1]; Group 3, 100 mg/kg i.p., CD-1 female mice) of 0.917 mL/min/kg. For the same compound, the “mortality and clinical observations” value ([1]; dosage below 100 mg/kg, i.p., CD-1 female mice) was “no mortality and no significant clinical observations”, the “AUC relative to the MIC” value [1, 3] was “more than 200 fold” and the “time of concentration above MIC” value [1, 3] was “more than 10 hours”. The clearance ([1]; rodent PK profile, i.p., mice) was ~ 100 mL/h/kg and the “prevention of mortality / block of infection” value [2] was “can effectively block Bacillus anthracis infection in mice”.
